From patent US7858657B2 (Proix Pharmaceutical Corp., priority 2004, dated 2010)

How the values were obtained:
[1] = Pharmacokinetics of PX-866 in mouse plasma; assay type: in vivo; conditions: intravenous, intraperitoneal and oral administration; mouse plasma (FIG. 2)
OvCaR-3 ovarian = test: Antitumor activity of wortmannin analogs, OvCaR-3 ovarian tumor (Table 1); assay type: in vivo; conditions: initial tumor vol 120 mm^3, 8 mg/kg/day ip Q1D × 9
HT-29 colon [2] = test: Antitumor activity of wortmannin analogs, HT-29 colon tumor (Table 1); assay type: in vivo; conditions: initial tumor vol 170 mm^3, 12 mg/kg/day ip Q1D × 9
A-549 lung = test: Antitumor activity of cytotoxic drugs alone or combined with PX-866, A-549 lung (Table 2); assay type: in vivo
HT-29 colon [3] = test: Antitumor activity of cytotoxic drugs alone or combined with PX-866, HT-29 colon (Table 2); assay type: in vivo; conditions: for Alone Growth delay days / Alone TGI % / Alone log cell kill: size 150 mm^3
p110α/p85α = molecular target: T1, p110α/p85α (Bos taurus, UniProt P32871); test: Inhibition of recombinant PtdIns-3-kinase, [32P]-ATP dependent phosphorylation of PtdIns; assay type: biochemical, bovine; conditions: recombinant enzyme; read-out: IC50, PtdIns-3-kinase p110α/p85α
T1 construct: purchased Upstate (Charlottesville, Va.)
Source text: (§1) Materials and Methods. Compounds. […] Rabbit purified anti-phosphoSer473-Akt antibody, anti-Akt antibody, antiphospho Tyr1086-EGF-receptor antibody and anti-EGFR antibody were obtained from Cell Signaling Technology (Beverly, Mass.). Human recombinant p110α/p85α, p110β/p85α, p120 (and p110*/p85α PtdIns-3-kinases were obtained from Upstate (Charlottesville, Va.). Metformin hydrochloride was obtained from Spectrum Chemical (Gardena, Calif.), pioglitazone hydrochloride and recombinant human insulin from Sigma Chemical (St. Louis).
(§2) Measurement of PtdIns-3-kinase.

p110β/p85α = molecular target: T2, p110β/p85α (Homo sapiens, UniProt P42338); test: as above; assay type: biochemical; conditions: recombinant enzyme
T2 construct: purchased Upstate (Charlottesville, Va.)
Source text: as §1, §2

p110δ/p85α = molecular target: T3, p110δ/p85α (Homo sapiens, UniProt O00329); test: as above; assay type: biochemical; conditions: recombinant enzyme
T3 construct: purchased Upstate (Charlottesville, Va.)
Source text: as §1, §2

p120γ = molecular target: T4, p120γ (Homo sapiens, UniProt P48736); test: as above; assay type: biochemical; conditions: recombinant enzyme
T4 construct: purchased Upstate (Charlottesville, Va.)
Source text: as §1, §2

[4] = tested on: phospho-Akt in A-549 cells; test: cells; assay type: cell-based; conditions: Homo sapiens, A549; A-549 cells in media containing 10% fbs; read-out: IC50, inhibition of phospho-Akt
Method: Cells. […] All cell lines were tested to be mycoplasma free using a PCR ELISA kit (Roche Diagnostics Inc., Indianapolis, Ind.).
as §2

[5] = tested on: tumor phospho-Akt (A-549 tumor xenografts); test: Pharmacodynamic studies, tumor phospho-Akt in A-549 xenografts; assay type: in vivo, scid mice
Source text: Pharmacodynamic Studies. […] Tumor Akt activity was expressed as the ratio of phospho-Ser473-Akt to total Akt.

[6] = Toxicity of long term PX-866 administration, scid mice; assay type: in vivo; conditions: for ALT: 24 hr after last dose, mean of 4 mice ± SE; for gain in body weight as % of the control weight gain: over the 4 weeks of treatment
Method: Toxicity Studies. […] The mice were killed 24 hr after the last dose and changes in body weight, blood lymphocyte, neutrophil, red blood cell, platelet counts, serum glucose, aspartate amino transferase (AST), and amino alanine transferase (ALT) were measured.
Values are the mean of 4 mice per group±SE.

mouse bone marrow = test: Bone marrow colony formation from treated mice; assay type: in vivo; conditions: C57B1/6 mice, PX-866 3 mg/kg po every other day for 15 doses
Method: Bone Marrow Colony Formation. After sacrifice, mouse bone marrow was extracted from each femur and red blood cells lysed with 0.2% hypotonic NaCl followed by the addition of a 1.6% hypertonic NaCl. Approximately 20,000 cells were plated in 1 ml of Methocult™ GF M3434 (Stemcell Technologies Inc, Vancouver, BC, Canada) containing 1% methylcellulose in […], 15% fbs, 1% bovine serum albumin, 10:g/ml recombinant human insulin, 200:g/ml humantransferrin, […] β-mercaptoethanol, 2 mM L-glutamine, 50 ng/ml rm stem cell factor, 10 ng/ml recombinant mouse interleukin-3, 10 ng/ml recombinant human interleukin-6, and 3 units/ml recombinant erythropoietin. Cells were plated in triplicate and grown at 37/C and 5% CO2 in a humid environment for 14 days before scoring. Colonies (>40 cells/colony) or clusters (3-40 cells) were scored and growth of colony-forming unit granulocyte, erythroid, macrophage, megakaryocyte (CFU-GEMM; burst-forming units-erythroid (BFU-E), colony-forming units granulocyte macrophage (CFU-GM), assessed using standard criteria. Qualitative observations were made on background levels of single cells.

HT-29 colon cancer = test: Antitumor activity of PX-866 with gefitinib in HT-29 colon cancer; assay type: in vivo; conditions: PX-866 2 mg/kg orally 4 hours prior to gefitinib 75 mg/kg po (FIG. 13)
[7] = tested on: A-673 thabdomyosarcom xenografts; test: Antitumor effect of PX-866 with bevacizumab, A-673 xenografts; assay type: in vivo; conditions: PX-866 intravenously or orally every three days in combination with bevacizumab (FIG. 14)
Method: PX-866 was administered at varying doses intravenously or orally every three days alone or in combination with bevacizumab.

[8] = PX-866 ip 6 mg/kg QD × 5 combined with cisplatin ip 1 mg/kg QD × 5
[9] = size 300 mm^3, PX-866 ip 6 mg/kg QD × 5
[10] = PX-866 iv 10 mg/kg Q2D × 3 combined with cisplatin ip 2.5 mg/kg Q2D × 3
[11] = PX-866 po 2.5 mg/kg Q2D × 3 combined with cisplatin ip 2.5 mg/kg Q2D × 3
[12] = PX-866 1.5 mg/kg po every other day for 14 doses, mean ± SE
[13] = PX-866 3 mg/kg po every other day for 14 doses, mean ± SE
[14] = PX-866 10 mg/kg iv every other day for 14 doses, mean ± SE

T2 sequence (P42338 whole entry): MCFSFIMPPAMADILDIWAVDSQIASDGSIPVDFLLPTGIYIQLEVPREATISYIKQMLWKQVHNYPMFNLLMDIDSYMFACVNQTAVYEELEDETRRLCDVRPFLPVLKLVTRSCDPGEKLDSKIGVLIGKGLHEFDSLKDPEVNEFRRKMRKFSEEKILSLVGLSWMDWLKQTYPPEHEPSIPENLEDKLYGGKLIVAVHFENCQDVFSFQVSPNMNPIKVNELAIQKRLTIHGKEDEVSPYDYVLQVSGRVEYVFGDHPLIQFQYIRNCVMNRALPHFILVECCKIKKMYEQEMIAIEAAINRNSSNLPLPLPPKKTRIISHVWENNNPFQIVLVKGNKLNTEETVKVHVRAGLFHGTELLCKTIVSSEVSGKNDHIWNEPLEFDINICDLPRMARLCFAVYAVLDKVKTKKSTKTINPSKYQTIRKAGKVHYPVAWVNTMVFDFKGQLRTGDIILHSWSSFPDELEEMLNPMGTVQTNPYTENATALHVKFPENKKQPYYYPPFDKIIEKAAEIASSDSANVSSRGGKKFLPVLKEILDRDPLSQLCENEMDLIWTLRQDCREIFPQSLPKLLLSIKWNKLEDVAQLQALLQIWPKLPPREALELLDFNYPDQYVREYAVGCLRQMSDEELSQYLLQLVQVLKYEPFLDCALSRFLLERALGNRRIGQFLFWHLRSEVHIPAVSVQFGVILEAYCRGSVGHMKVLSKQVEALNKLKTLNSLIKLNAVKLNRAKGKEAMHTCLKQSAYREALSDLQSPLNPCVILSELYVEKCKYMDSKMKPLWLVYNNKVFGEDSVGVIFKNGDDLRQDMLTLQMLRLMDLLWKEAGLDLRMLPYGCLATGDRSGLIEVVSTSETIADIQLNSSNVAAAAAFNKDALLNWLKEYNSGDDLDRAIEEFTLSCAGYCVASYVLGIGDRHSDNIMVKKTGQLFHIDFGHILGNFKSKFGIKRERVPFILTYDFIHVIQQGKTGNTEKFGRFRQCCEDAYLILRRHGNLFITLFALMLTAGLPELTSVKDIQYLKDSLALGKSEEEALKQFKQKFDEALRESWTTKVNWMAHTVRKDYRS
T2 sequence (P27986 whole entry partner): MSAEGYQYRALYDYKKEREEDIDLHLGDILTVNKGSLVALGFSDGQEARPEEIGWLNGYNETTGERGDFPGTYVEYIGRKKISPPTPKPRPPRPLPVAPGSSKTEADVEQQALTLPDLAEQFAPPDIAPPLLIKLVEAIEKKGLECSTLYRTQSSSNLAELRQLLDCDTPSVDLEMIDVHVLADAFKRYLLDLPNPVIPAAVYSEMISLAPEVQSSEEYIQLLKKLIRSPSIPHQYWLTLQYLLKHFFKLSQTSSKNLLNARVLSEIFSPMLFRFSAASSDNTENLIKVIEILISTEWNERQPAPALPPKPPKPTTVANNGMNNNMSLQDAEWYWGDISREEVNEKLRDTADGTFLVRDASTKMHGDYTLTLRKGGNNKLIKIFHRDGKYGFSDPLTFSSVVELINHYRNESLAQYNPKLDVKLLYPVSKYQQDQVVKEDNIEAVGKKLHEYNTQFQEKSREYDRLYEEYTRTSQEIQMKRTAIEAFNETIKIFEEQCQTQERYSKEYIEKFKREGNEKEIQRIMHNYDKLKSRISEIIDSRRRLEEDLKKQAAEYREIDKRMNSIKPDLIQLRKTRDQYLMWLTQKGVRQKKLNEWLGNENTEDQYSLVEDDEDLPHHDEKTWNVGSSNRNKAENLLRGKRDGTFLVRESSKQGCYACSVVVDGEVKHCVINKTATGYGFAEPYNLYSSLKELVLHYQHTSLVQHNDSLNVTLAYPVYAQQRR
T3 sequence (O00329 whole entry): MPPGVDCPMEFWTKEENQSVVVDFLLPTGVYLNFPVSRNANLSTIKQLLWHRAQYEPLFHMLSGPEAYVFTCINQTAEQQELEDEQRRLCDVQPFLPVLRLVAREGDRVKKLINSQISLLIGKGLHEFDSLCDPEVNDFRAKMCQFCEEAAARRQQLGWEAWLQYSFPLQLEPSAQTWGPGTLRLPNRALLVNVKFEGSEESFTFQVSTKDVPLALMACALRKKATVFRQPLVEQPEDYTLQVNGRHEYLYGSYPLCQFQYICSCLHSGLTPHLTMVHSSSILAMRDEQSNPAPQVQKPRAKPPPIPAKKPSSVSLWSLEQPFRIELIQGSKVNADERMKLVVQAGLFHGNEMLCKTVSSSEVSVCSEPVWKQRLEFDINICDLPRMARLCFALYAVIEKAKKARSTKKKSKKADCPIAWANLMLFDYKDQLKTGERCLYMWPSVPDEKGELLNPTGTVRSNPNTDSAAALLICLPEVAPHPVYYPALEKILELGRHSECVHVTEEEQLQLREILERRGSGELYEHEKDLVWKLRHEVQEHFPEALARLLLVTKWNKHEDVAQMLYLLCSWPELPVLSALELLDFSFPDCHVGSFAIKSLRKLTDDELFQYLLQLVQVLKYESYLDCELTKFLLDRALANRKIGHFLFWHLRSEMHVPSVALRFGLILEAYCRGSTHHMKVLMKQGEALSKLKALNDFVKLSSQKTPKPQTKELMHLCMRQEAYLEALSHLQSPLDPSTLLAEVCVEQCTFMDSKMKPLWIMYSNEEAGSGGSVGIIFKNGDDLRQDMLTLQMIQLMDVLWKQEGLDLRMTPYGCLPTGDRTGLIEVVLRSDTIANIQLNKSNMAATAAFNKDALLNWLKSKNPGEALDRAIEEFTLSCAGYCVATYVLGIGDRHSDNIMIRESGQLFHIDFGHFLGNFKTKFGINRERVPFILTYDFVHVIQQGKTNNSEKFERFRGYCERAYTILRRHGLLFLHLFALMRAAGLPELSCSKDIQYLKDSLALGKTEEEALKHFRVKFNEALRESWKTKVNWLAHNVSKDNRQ
T3 sequence (P27986 whole entry partner): as the sequence (P27986 whole entry partner) above
T1 sequence (P32871 whole entry): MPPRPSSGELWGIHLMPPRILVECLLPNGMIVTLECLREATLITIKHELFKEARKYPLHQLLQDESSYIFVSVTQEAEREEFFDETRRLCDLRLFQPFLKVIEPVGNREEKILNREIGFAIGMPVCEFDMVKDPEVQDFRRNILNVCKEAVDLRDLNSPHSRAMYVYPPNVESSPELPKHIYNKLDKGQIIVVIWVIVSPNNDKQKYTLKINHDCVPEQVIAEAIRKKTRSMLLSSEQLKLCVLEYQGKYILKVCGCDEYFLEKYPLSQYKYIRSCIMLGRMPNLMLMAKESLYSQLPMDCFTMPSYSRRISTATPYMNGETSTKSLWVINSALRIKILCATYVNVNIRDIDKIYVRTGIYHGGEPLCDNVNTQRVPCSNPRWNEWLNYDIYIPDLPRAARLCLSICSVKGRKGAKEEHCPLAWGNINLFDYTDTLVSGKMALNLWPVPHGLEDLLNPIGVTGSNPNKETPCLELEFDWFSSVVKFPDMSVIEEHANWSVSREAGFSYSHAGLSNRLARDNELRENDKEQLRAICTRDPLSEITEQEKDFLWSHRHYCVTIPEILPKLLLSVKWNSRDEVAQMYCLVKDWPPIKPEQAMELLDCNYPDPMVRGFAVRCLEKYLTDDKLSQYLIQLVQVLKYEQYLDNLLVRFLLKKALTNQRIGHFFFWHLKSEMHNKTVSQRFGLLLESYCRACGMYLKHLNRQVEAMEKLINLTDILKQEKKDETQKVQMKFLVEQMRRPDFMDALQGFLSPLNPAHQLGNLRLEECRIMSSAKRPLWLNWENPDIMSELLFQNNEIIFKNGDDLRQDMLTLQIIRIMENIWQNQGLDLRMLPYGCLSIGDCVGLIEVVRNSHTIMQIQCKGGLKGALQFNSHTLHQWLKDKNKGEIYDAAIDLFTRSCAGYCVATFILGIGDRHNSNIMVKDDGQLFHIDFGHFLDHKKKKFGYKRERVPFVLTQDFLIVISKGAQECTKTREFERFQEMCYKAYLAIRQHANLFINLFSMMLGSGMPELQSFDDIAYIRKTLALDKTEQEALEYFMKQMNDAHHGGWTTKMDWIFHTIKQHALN
T1 sequence (P23727 2-724 partner): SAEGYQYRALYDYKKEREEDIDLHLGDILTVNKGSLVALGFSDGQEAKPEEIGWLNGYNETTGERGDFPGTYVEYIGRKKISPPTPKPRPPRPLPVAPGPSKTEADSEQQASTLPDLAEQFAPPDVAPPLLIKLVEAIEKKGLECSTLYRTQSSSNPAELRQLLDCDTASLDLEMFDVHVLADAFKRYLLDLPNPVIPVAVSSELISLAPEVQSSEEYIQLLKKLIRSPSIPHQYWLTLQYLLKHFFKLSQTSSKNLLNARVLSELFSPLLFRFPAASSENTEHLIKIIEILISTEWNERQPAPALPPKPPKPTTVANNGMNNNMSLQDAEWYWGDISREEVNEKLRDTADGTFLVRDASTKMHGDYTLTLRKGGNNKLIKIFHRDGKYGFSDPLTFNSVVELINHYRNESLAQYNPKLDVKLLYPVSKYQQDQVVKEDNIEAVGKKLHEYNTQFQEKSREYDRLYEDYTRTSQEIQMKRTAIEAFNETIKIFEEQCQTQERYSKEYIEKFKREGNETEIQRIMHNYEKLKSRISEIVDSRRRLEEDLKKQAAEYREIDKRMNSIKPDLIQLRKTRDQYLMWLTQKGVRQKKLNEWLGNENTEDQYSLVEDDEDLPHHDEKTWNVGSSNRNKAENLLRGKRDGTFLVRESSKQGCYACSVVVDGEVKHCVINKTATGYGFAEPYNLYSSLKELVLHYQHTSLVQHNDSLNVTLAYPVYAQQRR

C=CCN(/C=C1/C(=O)O[C@H](COC)[C@@]2(C)C1=C(O)C(=O)C1=C2[C@H](OC(C)=O)C[C@]2(C)C(=O)CC[C@@H]12)CC=C [PX-866]
half-life [1]: ~16 h | Growth Delay (OvCaR-3 ovarian): 12 days | Log10 cell kill (OvCaR-3 ovarian): 1.2 | T/C % (optimal test/control) (OvCaR-3 ovarian; day 40): 30 (40) % | Growth Delay (HT-29 colon [2]): 6 days | Log10 cell kill (HT-29 colon [2]): 0.4 | T/C % (optimal test/control) (HT-29 colon [2]; day 16): 39 (16) % | Combined Growth delay days (A-549 lung; [8]): 10 days | Combined TGI % (A-549 lung; [8]): 58% | Combined log cell kill (A-549 lung; [8]): 1.0 | Alone Growth delay days (A-549 lung; [9]): 3 days | Alone TGI % (A-549 lung; [9]): 27% | Alone log cell kill (A-549 lung; [9]): 0.30 | Combined Growth delay days (HT-29 colon [3]; [10]): 6 days | Combined TGI % (HT-29 colon [3]; [10]): 56% | Combined log cell kill (HT-29 colon [3]; [10]): 0.5 | Combined Growth delay days (HT-29 colon [3]; [11]): 8 days | Combined TGI % (HT-29 colon [3]; [11]): 63% | Combined log cell kill (HT-29 colon [3]; [11]): 0.7 | Alone Growth delay days (HT-29 colon [3]; PX-866 iv 10 mg/kg Q2D × 3): 0 days | Alone TGI % (HT-29 colon [3]; PX-866 iv 10 mg/kg Q2D × 3): 11% | Alone log cell kill (HT-29 colon [3]; PX-866 iv 10 mg/kg Q2D × 3): 0.3 | Alone Growth delay days (HT-29 colon [3]; PX-866 po 2.5 mg/kg Q2D × 3): 1 days | Alone TGI % (HT-29 colon [3]; PX-866 po 2.5 mg/kg Q2D × 3): 29% | Alone log cell kill (HT-29 colon [3]; PX-866 po 2.5 mg/kg Q2D × 3): 0.1 | IC50 (p110α/p85α): 5.5 nM | IC50 (p110β/p85α): > 300 nM | IC50 (p110δ/p85α): 2.7 nM | IC50 (p120γ): 9 nM | IC50 [4]: 25 nM | inhibition at 12 mg/kg ([5]; Mus musculus, A549, iv, 120 h, read-out: inhibition of tumor phospho-Akt): 51% | inhibition at 3 mg/kg ([5]; Mus musculus, A549, po, 120 h, read-out: inhibition of tumor phospho-Akt): 48% | effect upon tumor phospho-Akt ([5]; combination of gefitinib and PX-866): inhibited both | ALT ([6]; PX-866 1.5 mg/kg po every other day for 14 doses): 65.6 ± 27.5 U/l | AST [6, 12]: 140.5 ± 35.2 U/l | Hb [6, 12]: 14.6 ± 0.3 g/dL | Weight change [6, 12]: 3.9 ± 0.6 g | ALT ([6]; PX-866 3 mg/kg po every other day for 14 doses): 47.6 ± 16.8 U/l | AST [6, 13]: 152.0 ± 47.2 U/l | Hb [6, 13]: 14.7 ± 0.4 g/dL | LY [6, 13]: 5.2 ± 3.9 K/μl | MO [6, 13]: 9.2 ± 3.6 K/μl | Plt [6, 13]: 1665 ± 227 K/μl | gain in body weight as % of the control weight gain ([6]; PX-866 3 mg/kg po): 28% | ALT ([6]; PX-866 10 mg/kg iv every other day for 14 doses): 35.5 ± 11.7 U/l | AST [6, 14]: 105.2 ± 19.2 U/l | Hb [6, 14]: 14.4 ± 0.1 g/dL | LY [6, 14]: 1.8 ± 0.5 K/μl | MO [6, 14]: 1.1 ± 0.2 K/μl | Ne [6, 14]: 14.0 ± 2.7 K/μl | Plt [6, 14]: 1390 ± 43 K/μl | WBC [6, 14]: 14.6 ± 4.2 K/μl | glucose [6, 14]: 76.2 ± 3.6 mg/dL | gain in body weight as % of the control weight gain ([6]; PX-866 10 mg/kg iv): 83% | time for changes in body weight, plasma glucose and blood cell counts to return to normal after treatment stopped ([6]; scid mice, long term PX-866): ≤ 9 days | erythroid lineage CFU-GEMM, BFU-E or CFU-E (mouse bone marrow): no significant change | myeloid CFU-GM (mouse bone marrow; ±S.E., n=4): 168±59 colonies per 60,000 bone marrow cells plated | antitumor effect with gefitinib (HT-29 colon cancer): increased the antitumor effect of gefitinib | antitumor activity with bevacizumab [7]: significantly increased the antitumor activity of bevacizumab
